Measured values taken from patent US20240130966A1 (Aerovate Therapeutics, Inc., priority 2021, published 2024).
Where two headings read alike, the source gives them in different places.

Procedure: Generator impactor profiles were prepared for ceramic milled powders both before and after conditioning with high humidity for a short time (80-90% RH at room temperature for ˜3 hours).
Again, the exposure consisted of 80%-90% relative humidity at room temperature for about 3 hours.

[1] = Post-exposure, 80%-90% relative humidity at room temperature for about 3 hours (N=9)

In the case of Imatinib, the “FPF of emitted dose (%)” value [1] was 66.8 +/− 4.3%, the “FPF of fill (%)” value [1] was 48.1 +/− 3.0% and the “FPF of emitted dose (%)” value (Pre-exposure to humidity (N=7)) was 52.3 +/− 6.3%. The “FPF of fill (%)” value (Pre-exposure to humidity (N=7)) was 36.2 +/− 3.5%, the “Increase in fine particle dose (stage 3-MOC levels) after humidity conditioning” value (ceramic milled powders, 80-90% RH at room temperature for ~3 hours, FIG. 1) was 10-20 % of the capsule fill dose and the “Delivery performance after desorption compared to post-humidification powders” value (humidity for 12+ hours, then desorbed at <5% RH for about 24 hours) was “no change in delivery performance”.
